Format in all cases: cell-based, human
One experiment has as its system LC3-II. The experiment can be described thus: Western blotting for autophagy, cell lines. As to the method: Following drug treatment, cell lysates were harvested using Cytobuster Protein Extraction Reagent (71009, EMD Millipore, Darmstadt, Germany) with protease inhibitors (cOmplete, EDTA-free Protease Inhibitor Cocktail Tablets, Roche Applied Science, UK). 20 µg of protein extract were loaded on 12% SDS-PAGE gels and wet-transferred to a PVDF membrane. Antibodies used include: monoclonal anti-β-actin 1∶5000 (A5316, Sigma-Aldrich), anti-LC3B 1∶3000 (Ab51520, abcam), cleaved caspase-3 (Asp175) 1∶1000 (9661S, Cell Signaling Technology) and secondary antibodies were Rabbit anti-mouse-HRP 1∶10000 (P0260, Dako) and anti-rabbit IgG HRP-linked 1∶5000 (Cell Signaling Technology Inc. 7074S). Kaleidoscope protein marker was run on each gel (161-0324, Bio-Rad).

Another experiment deals with P4E6, PC-3, LNCaP. Description: MTS assay, average over cancer cell lines. Conditions: average of P4E6, PC-3, LNCaP. The procedure:
(§1) In this study, six different prostate cell lines (PNT1A, PNT2-C2, BPH-1, PC-3, LNCaP, P4E6) were used (Table 1). These cell lines encompass the spectrum of cellular differentiation status (basal, intermediate and luminal phenotypes), as well as the spectrum of normal, early cancer and late cancer. BPH-1 is derived from benign prostate hyperplasia (BPH), while PNT2-C2 and PNT1A are derived from normal prostate. PC-3, LNCaP and P4E6 are cancer cell lines. LNCaP, PNT2-C2, PNT1A were grown in RPMI medium with 10% FCS (foetal calf serum); PC-3 was grown in Ham’s F-12 medium with 7% FCS; BPH-1 was grown in RPMI medium with 5% FCS; P4E6 was grown in KSFM (Keratinocyte serum free medium) with 2% FCS. No antibiotics were used in any media. The cells were incubated at 37°C in a humidified atmosphere containing 5% CO2.
(§2) This assay was performed for the initial screening of the effect of the Pd complex on the cell lines and the whole cell population of primary cultures. The CellTiter 96® Aqueous One Solution Cell Proliferation Assay kit (G3580, Promega, Madison, WI, USA) was used and the manufacturer’s instructions were followed. Briefly, after treating cells that were seeded at a density of 5,000 cells per well in a 96-well plate in triplicate for a desired period (24 h, 48 h, 72 h), 20 µL of reagent was added to each well. Following 2.5 h incubation at 37°C, the absorbance was read at 485 nm using a plate reader (PolarStar Optima, BMG Labtech, UK). Percent viability was calculated using the formula (% Viability = [(Sample Absorbance/Control Absorbance)]×100.
(§3) MTS and ATP assays were performed in triplicate and data presented as the mean +/− standard deviation. IC50 values (Table 3 and Table 4) were calculated from graphs of transformed data following application of the nonlinear regression (curve fit) that represents the log(inhibitor) ‘v’ normalized response (GraphPad Prism software) (Supplementary Figures S1 and S2). For significance calculations, the Wilcoxon rank sum test was used (Sigmaplot). […]
For orientation: Tetrazolium dyes change colour on reduction, which living cells bring about.

The test system of experiment [1] is PCa Primary cells (Gl8/9). The experiment can be described thus: MTS assay, primary cultures from prostate carcinoma Gleason 8/9.
From the text: (§4) Primary prostate epithelial cells were isolated from human tissue samples. The samples were collected with ethical permission from York District Hospital (York, UK) and Castle Hill Hospital (Cottingham, UK). Benign prostatic hyperplasia (BPH) and prostate cancer samples were obtained from TURP (transurethral resection of the prostate), radical prostatectomy (laparoscopic and open) and cystectomy operations. All patients gave written consent for their tissue to be used for research and all patient samples were anonymised. Permission was approved by the Local Research Ethical Committees, associated with York District Hospital and Castle Hill Hospital. Permission was administered by the Yorkshire and Humber Research Ethics Committee.
(§5) Prostate epithelial cells were cultured as previously described in stem cell media (SCM) consisting of keratinocyte serum-free media (KSFM) with bovine pituitary extract (BPE) and epidermal growth factor (EGF), glutamine, stem cell factor (SCF), granulocyte macrophage colony stimulating factor (GM-CSF), leukaemia inhibitory factor (LIF) and cholera toxin. Cells were grown with STO feeder cells (irradiated at 60 Gy) on collagen I-coated plates.
as §2
(§6) MTS and ATP assays were performed in triplicate and data presented as the mean +/− standard deviation. IC50 values (Table 3 and Table 4) were calculated from graphs of transformed data following application of the nonlinear regression (curve fit) that represents the log(inhibitor) ‘v’ normalized response (GraphPad Prism software) (Supplementary Figures S1 and S2). For significance calculations, the Wilcoxon rank sum test was used (Sigmaplot). Flow cytometry analysis was carried out in triplicate and results are presented as an average with error bars indicating the standard error.

A further experiment deals with BPH primary cells. The experiment can be described thus: MTS assay, primary cultures from benign prostate hyperplasia.
From the text: as §4, §5, §2, §6

For a further experiment, the system named is PNT1A, PNT2-C2, BPH-1. Description: MTS assay, average over normal/benign cell lines. The following applies: average of PNT1A. As to the method:
as §1, §2, §3

The subject of experiment [2] is primary cultures from BPH and Gleason 6/7 cancers. The experiment can be described thus: MTS assay, primary cultures BPH and Gleason 6/7 together.
From the text: as §4, with “Committee. […]” for “Committee.”
This assay was performed for the initial screening of the effect of the Pd complex on the cell lines and the whole cell population of primary cultures. […] Following 2.5 h incubation at 37°C, the absorbance was read at 485 nm using a plate reader (PolarStar Optima, BMG Labtech, UK). Percent viability was calculated using the formula (% Viability = [(Sample Absorbance/Control Absorbance)]×100.

For experiment [3], the system named is PNT1A, PNT2-C2, BPH-1, PC-3, LNCaP, P4E6. Description: MTS assay, panel of six prostate cell lines. The following applies: 100 µM, 72 h. The procedure:
as §1
This assay was performed for the initial screening of the effect of the Pd complex on the cell lines and the whole cell population of primary cultures. The CellTiter 96® Aqueous One Solution Cell Proliferation Assay kit (G3580, Promega, Madison, WI, USA) was used and the manufacturer’s instructions were followed. […] Following 2.5 h incubation at 37°C, the absorbance was read at 485 nm using a plate reader (PolarStar Optima, BMG Labtech, UK). Percent viability was calculated using the formula (% Viability = [(Sample Absorbance/Control Absorbance)]×100. […]

pIC50: −log10 of the molar value. Read-outs that look alike come from different tables or passages of the source.

As a reminder, the pIC50 is the IC50 on a negative log10 scale, so that one unit is a factor of ten.

For [PdCl(terpy)](sac)⋅2 H2O [Pd complex], the “LC3-II expression (autophagy)” value in the experiment on LC3-II (BPH-1, PNT2-C2 and P4E6 cells) is on record as “clear increase in the expression of LC3-II”. For the same substance, the “levels of LC3-I and LC3-II” value in the experiment on LC3-II (LNCaP and PC3 cells, any treatment) is on record as “did not change dramatically or in a dose-dependent fashion”. Moreover, the negative logarithm of the IC50 (pIC50) in the experiment with P4E6, PC-3, LNCaP (24 h) is 4.12; in the experiment on P4E6, PC-3, LNCaP (48 h), 4.63; in the experiment on P4E6, PC-3, LNCaP (72 h), 4.94; in experiment [1] (PCa primary cells (Gl8/9), sample 14912, 72 h, read-out: IC50), 4.19; in experiment [1] (PCa primary cells (Gl8/9), sample 16312, 72 h, read-out: IC50), 4.15; in experiment [1] (PCa primary cells (Gl8/9), sample 22912, 72 h, read-out: IC50), 4.33. Further, the negative-log IC50 (pIC50) in experiment [1] (average of PCa primary cells (Gl8/9), 72 h, read-out: IC50 AVERAGE) is 4.22; in the experiment on BPH primary cells (BPH primary cells, sample 1608, 72 h, read-out: IC50) it was 5.22; in the experiment on BPH primary cells (BPH primary cells, sample 3108, 72 h, read-out: IC50), 5.14; in the experiment with BPH primary cells (BPH primary cells, sample 7611, 72 h, read-out: IC50) it was 5.16; with BPH primary cells (BPH primary cells, sample 8109, 72 h, read-out: IC50) it was 4.84; with BPH primary cells (average of BPH primary cells, 72 h, read-out: IC50 AVERAGE), 5.06. The negative-log IC50 (pIC50) in the experiment with PNT1A, PNT2-C2, BPH-1 (PNT2-C2, BPH-1, 24 h) was 4.80; in the experiment with PNT1A, PNT2-C2, BPH-1 (PNT2-C2, BPH-1, 48 h), 5.17; in the experiment with PNT1A, PNT2-C2, BPH-1 (PNT2-C2, BPH-1, 72 h), 6.42. The “reduction of cell viability compared to etoposide” value in the experiment with BPH primary cells (benign samples, both at 25 µM, 72 h, median values) is given as “at least 5.6 fold”. In addition, the “concentrations having a significant anti-growth effect on all samples” value in experiment [2] (BPH and Gleason 6/7 samples, 72 h) is “higher than 6.25”. Besides, the “lowest concentration inducing a significant anti-growth effect” value in experiment [2] (primary cultures, previous experiments (MTS)) is listed as 6.25 µM. The “growth inhibition of all cell lines” value in experiment [3] is given as “almost completely”.

The values above are taken from PMC3651166, “Differential Cytotoxic Activity of a Novel Palladium-Based Compound on Prostate Cell Lines, Primary Prostate Epithelial Cells and Prostate Stem Cells” (PLoS ONE, 2013).
